| melting point | Compound |
| --- | --- |
| 170 to 180 °C | Cl.O=C(N[C@H]1CN2CCC1CC2)c1ccc2scnc2c1 |
| 166 to 176 °C | Cl.O=C(N[C@@H]1CN2CCC1CC2)c1ccc2scnc2c1 |
| 285 °C (dec.) | Cl.O=C(N[C@H]1CN2CCC1CC2)c1ccc2ncsc2c1 |
| 180 to 188 °C | Cl.O=C(N[C@@H]1CN2CCC1CC2)c1cccc2cn[nH]c12 |
